The text below walks through data of patent publication US8106055B2, “Substituted amide compounds” (Gruenenthal GmbH, priority 2007, dated 2012).

In test [1] the target is T1, bradykinin 1 receptor (B1R) of the rat (Rattus norvegicus, UniProt P97583).
T1 construct: expressed in transfected cells; host or cells: CHO K1 cells
T1 sequence (P97583 1-337): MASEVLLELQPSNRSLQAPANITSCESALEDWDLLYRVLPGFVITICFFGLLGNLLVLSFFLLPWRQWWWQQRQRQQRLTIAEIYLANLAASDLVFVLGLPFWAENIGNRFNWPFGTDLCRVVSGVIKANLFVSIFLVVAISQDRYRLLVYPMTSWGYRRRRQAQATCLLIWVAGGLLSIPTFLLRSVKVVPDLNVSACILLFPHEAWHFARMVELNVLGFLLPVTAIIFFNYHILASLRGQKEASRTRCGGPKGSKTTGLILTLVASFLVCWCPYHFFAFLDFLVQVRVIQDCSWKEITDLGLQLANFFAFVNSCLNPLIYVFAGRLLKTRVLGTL
The test is described as follows: Functional investigation on the rat bradykinin 1 receptor (B1R), Ca2+ FLIPR assay in CHO K1 rB1R cells. It is filed as cell-based. The settings on record: test substance 10 μM; for inhibition at 10 µM: CHO-K1, B1R antagonism rat, read-out: B1R Ant. r [10 μM] % Inhibition. The procedure, abridged: (§1)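 Fluo-4 Ca2+ readout, peak fluorescence. Stable CHO K1 transfectants; compound pre-incubated 10-20 min, then EC80 agonist—Lys-Des-Arg9-BK for hB1R, Des-Arg9-BK for rB1R. % inhibition vs maximal inhibition; IC50 from multiple concentrations, duplicate/triplicate, ≥2 independent runs.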

Test [2] deals with T2, human bradykinin 1 receptor (B1R) (Homo sapiens, UniProt P46663).
T2 construct: expressed in transfected cells; host or cells: CHO K1 cells
T2 sequence (P46663 1-353): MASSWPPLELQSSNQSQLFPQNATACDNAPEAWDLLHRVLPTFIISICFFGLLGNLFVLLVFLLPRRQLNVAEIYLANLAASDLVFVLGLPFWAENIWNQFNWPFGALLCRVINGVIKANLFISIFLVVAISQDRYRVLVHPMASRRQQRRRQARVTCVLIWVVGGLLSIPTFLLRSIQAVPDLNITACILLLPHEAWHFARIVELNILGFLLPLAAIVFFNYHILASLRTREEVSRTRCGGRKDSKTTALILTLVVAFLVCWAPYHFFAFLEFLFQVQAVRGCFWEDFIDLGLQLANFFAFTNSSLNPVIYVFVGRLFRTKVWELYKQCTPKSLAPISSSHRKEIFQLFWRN
The test is described as follows: Functional investigation on the human bradykinin 1 receptor (B1R), Ca2+ FLIPR assay in CHO K1 hB1R cells. It is filed as cell-based. The conditions noted are these: test substance 10 μM; for inhibition at 10 µM: CHO-K1, B1R antagonism human, read-out: B1R Ant. h [10 μM] % Inhibition. The procedure, abridged:
as §1

The next test deals with T3, human μ opiate receptor (Homo sapiens, UniProt P35372).
T3 construct: purchased PerkinElmer Life Sciences, Zaventem, Belgium RB-HOM; host or cells: CHO-K1 cells (membrane preparation)
The test is described as follows: Affinity for the human μ opiate receptor ([3H]-naloxone displacement, CHO-K1 receptor membrane preparation, SPA). The test is classed as binding. The conditions noted are these: test concentration 1 μM; for inhibition at 1 µM: 1.5 h. The essentials: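 Displacement of 1 nmol/l [3H]-naloxone measured by SPA counting after 90 min at room temperature, using human μ receptor CHO-K1 membrane preparation in Tris-HCl buffer with 0.06% BSA. Test substances at 1 μmol/l give % inhibition; dilution series yield IC50, then Ki (Cheng-Prusoff); non-specific binding with 100 μmol/l naloxone.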

The mark [3] stands for this setting: % inhibition compared with the maximum achievable inhibition.
The mark [4] stands for this setting: Table 3, to be read in the same way as Table 1, read-out: μ.

Structures are written as SMILES. Like-named read-outs stand apart in the source and are kept apart here.

T3 sequence (P35372 whole entry): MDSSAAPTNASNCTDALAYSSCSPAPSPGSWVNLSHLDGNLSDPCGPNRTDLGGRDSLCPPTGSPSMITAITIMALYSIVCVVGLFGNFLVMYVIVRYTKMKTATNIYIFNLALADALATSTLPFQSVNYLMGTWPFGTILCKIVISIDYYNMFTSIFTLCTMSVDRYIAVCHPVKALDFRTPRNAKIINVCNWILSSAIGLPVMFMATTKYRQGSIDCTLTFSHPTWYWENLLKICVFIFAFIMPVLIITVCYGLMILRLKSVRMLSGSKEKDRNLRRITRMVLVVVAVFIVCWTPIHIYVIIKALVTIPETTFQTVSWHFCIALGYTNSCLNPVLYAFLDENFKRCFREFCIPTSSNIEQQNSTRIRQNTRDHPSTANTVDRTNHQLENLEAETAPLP

As to `COc1cc(C)c(S(=O)(=O)N(C)CCOCC(=O)N2CCC(C(c3ccccc3)N3CCN(C)CC3)CC2)c(C)c1` (stereo not drawn) [Example 798, 4-methoxy-N,2,6-trimethyl-N-(2-(2-(4-((4-methylpiperazin-1-yl)(phenyl)methyl)piperidin-1-yl)-2-oxoethoxy)ethyl)benzenesulfonamide], the inhibition at 10 µM was 100% in test [1] (setting [3]) and 110% in test [2] (setting [3]). Moreover, on human μ opiate receptor (setting [4]), the inhibition at 1 µM was found to be 19%.

With `O=C(COC1CCCN(S(=O)(=O)c2c(Cl)cc(Cl)cc2Cl)C1)NC1CCC(C(CCc2ccccc2)N2CCOCC2)CC1` (stereo not drawn) [Example 672, N-(4-(1-morpholin-3-phenylpropyl)cyclohexyl)-2-(1-(2,4,6-trichlorophenylsulfonyl)piperidin-3-yloxy)acetamide], in test [1] (B1R antagonism rat, Ca2+ FLIPR, CHO K1 rB1R cells), the “B1R Ant. r [10 μM] % Inhibition” value is 11%. Further, the “B1R Ant. h [10 μM] % Inhibition” value in test [2] (B1R antagonism human, Ca2+ FLIPR, CHO K1 hB1R cells) turned out to be 18%. The μ at human μ opiate receptor (Table 3, to be read in the same way as Table 1) was 16 % inhibition.

As for `COc1cc(C)c(S(=O)(=O)N2CCC(OCC(=O)NCC3CCC(C(CCc4ccccc4)N4CCOCC4)CC3)C2)c(C)c1` (stereo not drawn) [Example 725, 2-(1-(4-methoxy-2,6-dimethylphenylsulfonyl)pyrrolidin-3-yloxy)-N-((4-(1-morpholino-3-phenylpropyl)cyclohexyl)methyl)acetamide], the inhibition at 10 µM in test [1] (Ca2+ FLIPR, CHO K1 rB1R cells) amounted to 63%; in test [2] (Ca2+ FLIPR, CHO K1 hB1R cells), 96%. For the same compound, the inhibition at 1 µM on human μ opiate receptor (setting [4]) was determined as 10%.

In the case of `CN(C)C(c1ccccc1)C1CCC(CNC(=O)COCC2CCCN2S(=O)(=O)c2c(Cl)cc(Cl)cc2Cl)CC1` (stereo not drawn) [Example 622, N-[4-(dimethylaminophenylmethyl)-cyclohexylmethyl]-2-[1-(2,4,6-trichlorobenzenesulfonyl)-pyrrolidin-2-ylmethoxy]-acetamide], the inhibition at 10 µM in test [1] (Ca2+ FLIPR, CHO K1 rB1R cells) stood at 68%; in test [2] (Ca2+ FLIPR, CHO K1 hB1R cells), 106%. Also, the inhibition at 1 µM on human μ opiate receptor (Table 2, read-out: μ receptor) was 96%.

For `COc1cc(C)c(S(=O)(=O)N2CCCC2COCC(=O)NC2CCC(C(CCc3ccccc3)N3CCOCC3)CC2)c(C)c1` (stereo not drawn) [Example 676, 2-((1-(4-methoxy-2,6-dimethylphenylsulfonyl)pyrrolidin-2-yl)methoxy)-N-(4-(1-morpholino-3-phenylpropyl)cyclohexyl)acetamide], the inhibition at 10 µM in test [1] (Ca2+ FLIPR, CHO K1 rB1R cells) is 106%; in test [2] (Ca2+ FLIPR, CHO K1 hB1R cells), 93%. Also, on human μ opiate receptor (setting [4]), the inhibition at 1 µM is 10%.

On to `O=C(COCC1CCCCN1S(=O)(=O)c1c(Cl)cc(Cl)cc1Cl)NCC1CCC(C(c2ccccc2)N2CCCC2)CC1` (stereo not drawn) [Example 658, N-((4-(phenyl(pyrrolidin-1-yl)methyl)cyclohexyl)methyl)-2-((1-(2,4,6-trichlorophenylsulfonyl)piperidin-2-yl)methoxy)acetamide], for which the inhibition at 10 µM in test [1] (Ca2+ FLIPR, CHO K1 rB1R cells) stood at 105%; in test [2] (Ca2+ FLIPR, CHO K1 hB1R cells), 104%. The inhibition at 1 µM on human μ opiate receptor (setting [4]) was found to be 88%.

On to `O=C(COCC1CCCN(S(=O)(=O)c2c(Cl)cc(Cl)cc2Cl)C1)NC1CCC(C(c2ccccc2)N2CCCC2)CC1` (stereo not drawn) [Example 633, N-(4-(phenyl(pyrrolidin-1-yl)methyl)cyclohexyl)-2-((1-(2,4,6-trichlorophenylsulfonyl)piperidin-3-yl)methoxy)acetamide], for which the inhibition at 10 µM in test [1] (Ca2+ FLIPR, CHO K1 rB1R cells) was 63%; in test [2] (Ca2+ FLIPR, CHO K1 hB1R cells), 55%. The inhibition at 1 µM at human μ opiate receptor (setting [4]) was 91%.

In the case of `O=C(COCC1CCCN1S(=O)(=O)c1c(Cl)cc(Cl)cc1Cl)NC1CCC(C(c2ccccc2)N2CCOCC2)CC1` (stereo not drawn) [Example 698, N-(4-(morpholino(phenyl)methyl)cyclohexyl)-2-((1-(2,4,6-trichlorophenylsulfonyl)pyrrolidin-2-yl)methoxy)acetamide], the inhibition at 10 µM in test [1] (Ca2+ FLIPR, CHO K1 rB1R cells) was 86%; in test [2] (Ca2+ FLIPR, CHO K1 hB1R cells) it was 39%. Besides, the inhibition at 1 µM at human μ opiate receptor (setting [4]) worked out at 40%.

Regarding `COc1cc(C)c(S(=O)(=O)N2CCCCC2COCC(=O)NCC2CCC(C(c3ccccc3)N3CCOCC3)CC2)c(C)c1` (stereo not drawn) [Example 711, 2-((1-(4-methoxy-2,6-dimethylphenylsulfonyl)piperidin-2-yl)methoxy)-N-((4-(morpholino(phenyl)methyl)cyclohexyl)methyl)acetamide], the inhibition at 10 µM in test [1] (Ca2+ FLIPR, CHO K1 rB1R cells) came out at 103%; in test [2] (Ca2+ FLIPR, CHO K1 hB1R cells), 86%. Also, the inhibition at 1 µM on human μ opiate receptor (setting [4]) worked out at 33%.

As to `CN(CCOCC(=O)NCC1CCC(C(c2ccccc2)N2CCCC2)CC1)S(=O)(=O)c1ccc(Cl)cc1Cl` (stereo not drawn) [Example 641, 2-(2-(2,4-dichloro-N-methylphenylsulfonamido)ethoxy)-N-((4-(phenyl(pyrrolidin-1-yl)methyl)cyclohexyl)methyl)acetamide], the inhibition at 10 µM in test [1] (Ca2+ FLIPR, CHO K1 rB1R cells) turned out to be 45%; in test [2] (Ca2+ FLIPR, CHO K1 hB1R cells), 96%. Moreover, the inhibition at 1 µM at human μ opiate receptor (setting [4]) was determined as 66%.

Take `CN(CCOCC(=O)NCC1CCC(C(CCc2ccccc2)N2CCCC2)CC1)S(=O)(=O)c1c(Cl)cccc1Cl` (stereo not drawn) [Example 722, 2-(2-(2,6-dichloro-N-methylphenylsulfonamido)ethoxy)-N-((4-(3-phenyl-1-(pyrrolidin-1-yl)propyl)cyclohexyl)methyl)acetamide]: the inhibition at 10 µM in test [1] (Ca2+ FLIPR, CHO K1 rB1R cells) is 89%; in test [2] (Ca2+ FLIPR, CHO K1 hB1R cells), 101%. Besides, at human μ opiate receptor (setting [4]), the inhibition at 1 µM is 32%.

As for `O=C(COC1CCN(S(=O)(=O)c2c(Cl)cc(Cl)cc2Cl)C1)NCC1CCC(C(c2ccccc2)N2CCOCC2)CC1` (stereo not drawn) [Example 743, N-((4-(morpholino(phenyl)methyl)cyclohexyl)methyl)-2-(1-(2,4,6-trichlorophenylsulfonyl)pyrrolidin-3-yloxy)acetamide], the inhibition at 10 µM in test [1] (Ca2+ FLIPR, CHO K1 rB1R cells) was 10%; in test [2] (Ca2+ FLIPR, CHO K1 hB1R cells), -3%. The inhibition at 1 µM on human μ opiate receptor (setting [4]) was 8%.

In the case of `CN(CCOCC(=O)NC1CCC(C(c2ccccc2)N2CCOCC2)CC1)S(=O)(=O)c1ccc(Cl)cc1Cl` (stereo not drawn) [Example 680, 2-(2-(2,4-dichloro-N-methylphenylsulfonamido)ethoxy)-N-(4-(morpholino(phenyl)methyl)cyclohexyl)acetamide], the inhibition at 10 µM in test [1] (Ca2+ FLIPR, CHO K1 rB1R cells) was found to be 23%; in test [2] (Ca2+ FLIPR, CHO K1 hB1R cells), 21%. The inhibition at 1 µM on human μ opiate receptor (setting [4]) turned out to be 4%.

In the case of `O=C(COC1CCCN(S(=O)(=O)c2c(Cl)cc(Cl)cc2Cl)C1)NCC1CCC(C(c2ccccc2)N2CCCC2)CC1` (stereo not drawn) [Example 656, N-((4-(phenyl(pyrrolidin-1-yl)methyl)cyclohexyl)methyl)-2-(1-(2,4,6-trichlorophenylsulfonyl)piperidin-3-yloxy)acetamide], the inhibition at 10 µM in test [1] (Ca2+ FLIPR, CHO K1 rB1R cells) was determined as 42%; in test [2] (Ca2+ FLIPR, CHO K1 hB1R cells), 76%. For the same compound, the inhibition at 1 µM on human μ opiate receptor (setting [4]) turned out to be 89%.

Regarding `CN(CCOCC(=O)NC1CCC(C(CCc2ccccc2)N2CCOCC2)CC1)S(=O)(=O)c1c(Cl)cc(C(F)(F)F)cc1Cl` (stereo not drawn) [Example 670, 2-(2-(2,6-dichloro-N-methyl-4-(trifluoromethyl)phenylsulfonamido)ethoxy)-N-(4-(1-morpholino-3-phenylpropyl)cyclohexyl)acetamide], the inhibition at 10 µM in test [1] (Ca2+ FLIPR, CHO K1 rB1R cells) stood at 58%; in test [2] (Ca2+ FLIPR, CHO K1 hB1R cells), 12%. Further, the inhibition at 1 µM on human μ opiate receptor (setting [4]) was 7%.

Regarding `CN(CCOCC(=O)NC1CCC(C(CCc2ccccc2)N2CCCCC2)CC1)S(=O)(=O)c1ccc(Cl)cc1Cl` (stereo not drawn) [Example 661, 2-(2-(2,4-dichloro-N-methylphenylsulfonamido)ethoxy)-N-(4-(3-phenyl-1-(piperidin-1-yl)propyl)cyclohexyl)acetamide], the inhibition at 10 µM in test [1] (Ca2+ FLIPR, CHO K1 rB1R cells) is 25%; in test [2] (Ca2+ FLIPR, CHO K1 hB1R cells) it was 73%. In addition, the inhibition at 1 µM on human μ opiate receptor (setting [4]) amounted to 21%.

In the case of `CN(CCOCC(=O)NC1CCC(C(CCc2ccccc2)N2CCCCC2)CC1)S(=O)(=O)c1c(Cl)cc(Cl)cc1Cl` (stereo not drawn) [Example 637, N-(4-(3-phenyl-1-(piperidin-1-yl)propyl)cyclohexyl)-2-(2-(2,4,6-trichloro-N-methylphenylsulfonamido)ethoxy)acetamide], the inhibition at 10 µM came to 45% in test [1] (Ca2+ FLIPR, CHO K1 rB1R cells) and 85% in test [2] (Ca2+ FLIPR, CHO K1 hB1R cells). Besides, the inhibition at 1 µM on human μ opiate receptor (setting [4]) stood at 35%.
